Assay results as given in patent US7749491B2, “Compounds and methods to enhance rAAV transduction” (priority 2003, dated 2010).
Peptide text beside a SMILES is read from it. * marks the point of attachment. Cbz = O=C(OCc1ccccc1)*

Columns and labels:
[1] = tested on: polarized human bronchial epithelial cells; assay type: cell-based
Protocol: Primary culture of human bronchial epithelia and reagents utilized. Primary human airway epithelial cells were collected by enzymatic digestion of bronchial samples from lung transplants, as previously described (Kondo et al., 1991; Zabner et al., 1996). Isolated primary airway cells were seeded at a density of 5×10^5 cells/cm^2 onto collagen-coated Millicell-HA culture inserts (Millipore Corp., Bedford, Mass.). Primary cultures were grown at the air-liquid interface for more than 2 weeks, by which time differentiation into a mucociliary epithelium occurs. The culture medium, used to feed only the basolateral side of the cells, contained 49% DMEM, 49% Ham's F12 and 2% Ultraser G (BioSepra, Cedex, France). Dimethyl Sulphoxide (DMSO), camptothecin (Camp), etoposide (Etop), aphidicolin (Aphi), hydroxyurea (HU) and genistein (Geni) were purchased from Sigma (St. Louis, Mo.). Tripeptidyl aldehyde proteasome inhibitors N-Acetyl-L-Leucyl-L-Leucyl-Norleucine (LLnL) and benzyloxycarbonyl-L-leucyl-L-leucyl-L-leucinal (Z-LLL) were purchased from Calbiochem-Novabiochem Corporation (La Jolla, Calif.). Ubiquitin ligase (E3) inhibitors were obtained from Bachem Bioscience Inc. (King of Prussia, Pa.). Anti-AAV capsid monoclonal antibody (Anti-VP1, 2 and 3) was purchased from American Research Products (Belmont, Mass.) and anti-ubiquitin antibody was purchased from Santa Cruz Biotechnology Inc. (Santa Cruz, Calif.).
Transduction of polarized airway epithelial cells and primary human fibroblasts. rAAV infection of fully differentiated bronchial cells was performed as described in Duan et al. (1998). For infections from the apical surface of the airway cells, 5 μl rAAV was mixed with 50 μl of culture media and applied directly onto the apical compartment of Millicell inserts (MOI=10,000 particles/cell). During apical infection, the basolateral side of the Millicell was continuously bathed in culture media. Gene transfer to the basal side was performed by inverting Millicell inserts and applying viral vector to the bottom of the supporting filter membrane in a 50 μl volume for 2 hours. Subsequently, Millicell inserts were returned to the upright position, in the continued presence of the original viral inoculum plus an additional 450 μl of media. For both apical and basolateral infections, rAAV containing media was removed after 24 hours and replaced with either fresh culture media (for the basal side) or exposed to air (for the apical side). To test the effect of different agents on the efficiency of AAV transduction in polarized airway cells, 1 μl of each solution was mixed with AAV prior to infection of airway epithelia. Agents were usually presented during the 24 hours AAV infection period unless indicated otherwise. Most of the agents were dissolved in DMSO except for hydroxyurea (dissolved in phosphate buffered saline), H-Leu-Ala-OH (dissolved in 0.9% glacial acetic acid) and H-His-Ala-OH (dissolved in 50% methanol). The working concentrations of the agents were as follows: 0.1 μM camptothecin, 10 μM etoposide, 5 μg/ml aphidicolin, 40 mM hydroxyurea, 50 μM genistein, 40 μM LLnL and 4 μM Z-LLL. When the ubiquitin ligase (E3) inhibitors (H-Leu-Ala-OH and H-His-Ala-OH) were used, airway cells were pretreated with a combination of both inhibitors at a final concentration of 2 mM for 60 minutes prior to infection, followed by the continued presence of inhibitor (0.2 mM) during the entire 24 hours infection period from the basolateral surface. Studies involving EGTA treatment were performed by transiently treating the apical membrane of polarized airway epithelia with 3 mM EGTA in water for 10 minutes (Duan et al., 1998). Following hypotonic EGTA treatment, cultures were washed twice with culture medium and infected with rAAV in the presence or absence of 40 μM LLnL. Human primary fibroblast cells (P4) were maintained in 10% fetal bovine serum (FBS), 1% penicillin and streptomycin, and 89% DMEM. […]

[2] = Toxicity of proteasome inhibitors in mice; assay type: in vivo, mouse; settings: 10, 100, and 1000 fold higher effective doses; intra-tracheal and systemic (IV) delivery
Protocol: Long-term enhancement of rAAV transduction by proteasome inhibitor in vivo. To evaluate the potential utility of proteasome inhibitors for in vivo gene therapy, both the toxicity and efficacy of these agents for in vivo rAAV mediated gene transfer in the mouse lung was tested. To assess the toxicity of these proteasome inhibitors in mice, 10, 100, and 1000 fold higher effective doses of LLnL or Z-LLL were administered than used to induce gene transfer in polarized airway cells, using both intra-tracheal and systemic (IV) delivery. No toxicity was indicated by histologic evaluation of the lung and liver or was evidenced by the death of animals. To investigate whether these proteasome inhibitors could improve rAAV transduction in vivo, AV.LacZ (5×10^10 particles) was delivered either alone or in the presence of 400 μM Z-LLL by intranasal administration. Mouse lungs were harvested at 3, 10 and 150 days post-infection to evaluate short and long term effects. […] Targeted transgene expression was predominantly confined to the conducting airways, rather than in the parenchyma. Alveolar cells were rarely transduced. […] The range of transgene expression in distal and proximal airways was 0 to 4% and 5 to 18%, respectively.

[3] = tested on: mouse lung airway epithelium; assay: AV.LacZ gene transfer to mouse lung with Z-LLL (nasal aspiration, X-gal morphometry); assay type: in vivo; settings: 400 μM Z-LLL; 3 and 10 days post infection
Protocol: In vivo studies in mice. Animal studies were performed in accordance with the institutional guidelines of the University of Iowa. To determine the effect of the proteasome inhibitor on AAV mediated gene transfer in mouse lung, 6 week-old BALB/c mice were lightly anesthetized using a methoxyflurane chamber. AV.LacZ (5×10^10 particles) was administered alone or with 400 μM Z-LLL in a 10 μl instillation by nasal aspiration as described by Walters et al. (2000). To prevent unforeseen toxicity of DMSO solvent, the proteasome inhibitor Z-LLL was dissolved in ethanol as a 40 mM stock solution and was included in the viral inoculum at 1% final concentration. Viral infection controls in the absence of Z-LLL also contained a 1% final concentration of ethanol. […] Lungs (N=3 for each condition) were embedded in OCT (optimal cutting temperature; Baxter, Warrendale, Pa.) and 15 μm serially sections were analyzed for gene transfer by calculating the percentage of positive cells in the airway epithelium. The diameter of the airway was recorded for classification (>360 μm, 260-350 μm, 160-250 μm, <150 μm) of results following morphometric analysis. Greater than 150 airway cross-sections were quantified for each experimental condition.

mouse lung = assay: AV2Luc / AV2/5Luc gene transfer to BL6 mouse lung with Z-LLL and/or Dox; assay type: in vivo; settings: 200 μM
HeLa cells = assay: AV2eGFP versus scAV2eGFP expression in Hela cells with hydroxyurea; assay type: cell-based; settings: 5 mM pretreatment; 24 hours post-infection
Protocol: A set of viral vectors was prepared of half-genome length was prepared. Four GFP-based viruses were generated for this analysis (AV2eGFP, scAV2eGFP, AV2/5eGFP, and scAV2/5eGFP that had either 4.7 kb or 2.4 kb length genomes packaged into AAV2 or AAV5 capsids. The data AAV2 capsid viruses were identical to data for rAAV5 viruses. Functional confirmation of scAAV/dsAAV structure was performed by analysis of gene conversion and gene expression rates in Hela cells, sensitivity of transduction in Hela cells to the DNA synthesis inhibitor hydroxyurea (HU), and by denaturing NaHO gel electrophoresis. Polarized airway epithelia were infected with the various vector constructs from the apical membrane in the presence and absence of applied LLnL at the time of infection. Gene expression was monitored by quantitative morphometry of GFP fluorescence at various post-infection time points.

## CC(C)C[C@@H](C=O)NC(=O)[C@H](CC(C)C)NC(=O)[C@H](CC(C)C)NC(=O)OCc1ccccc1 [Z-LLL, N-carbobenzoxyl-L-leucinyl-L-leucinyl-L-leucinal] (Cbz-Leu-Leu-Leu-aldehyde)
[1]; applied to the serosal surface along with rAAV, 2 days post infection, LLnL 40 μM
  augmentation in transgene expression: A similar result was achieved
[2]
  toxicity (histologic evaluation of lung and liver, death of animals): No toxicity
[3]
  transgene expression (X-gal staining of lung): no detectable transgene expression
Mouse lung
  induction of transgene expression from AV2/5 vectors: 10 fold

## NC(=O)NO [hydroxyurea]
[1]; apical infection, data not shown
  rAAV transduction from the apical surface: none of these agents facilitated rAAV transduction from the apical surface
HeLa cells
  effect on gene expression from AV2eGFP and scAV2eGFP: significantly decreased gene expression from AV2eGFP but not scAV2eGFP virus
